Assay results reported in patent US20230390279A1, “COMPOSITION AND METHOD FOR TREATING CANCER” (NOVMETAPHARMA CO., LTD., priority 2022, published 2023).

Experiments:
Type in all cases: cell-based
[1] = tested on: SKOV-3 ovarian cancer cells; experiment: MTT cell viability assay, TKI combination; details: Homo sapiens, SK-OV-3, ruxolitinib 30 μM, 24 hours, read-out: growth inhibition
[2] = tested on: Panc1 pancreatic cancer cells; experiment: MTT cell viability assay, TKI combination; details: Homo sapiens, PANC-1, ceritinib 2.5 μM, 24 hours, read-out: growth inhibition
Description: (§1) To evaluate anticancer effects of ERRγ compound, alone and in combination with TKIs, various cancer cells including A549, Panc-1, Sk-Hep-1, Huh-7, and SK-Hep-1 cells were cultured in DMEM containing 10% FBS and 1% antibiotics.
(§2) To initiate the assay, cells were seeded in 96-well plates at a density of 1×10^4 cells per well and incubated overnight in a 37° C. […] To serve as a control, an equal volume of DMSO was added. After 24 hours of incubation, the media was replaced with media containing 0.5 mg/ml of MTT and the plates were incubated for 1 hour. Then, the medium was removed and formazan crystals were dissolved in 100 μl of DMSO added to each well. A microplate reader was used to measure the absorbance at 570 nm, and cell viability was normalized to control. Statistical significance was calculated using Student's t-test, with significance levels set at **p<0.01, ***p<0.001, and ****p<0.0001.

[3] = tested on: A549 lung cancer cell line; experiment: MTT cell viability assay, TKI combination; details: Homo sapiens, bosutinib 12.5 μM, 24 hours, read-out: growth inhibition
Description: as §1, §2

[4] = tested on: SK-Hep-1 liver cancer cells; experiment: MTT cell viability assay, TKI combination; details: Homo sapiens, SK-HEP1, lenvatinib 15 μM, 24 hours, read-out: growth inhibition
Description: as §1, §2

Huh-7 liver cancer cells = experiment: MTT cell viability assay, TKI combination; details: Homo sapiens, lenvatinib 1.3 μM, 24 hours, read-out: growth inhibition
Description: as §1, §2

[5] = tested on: sorafenib-resistant liver cancer cell line Huh7-SR; experiment: Cell death by FACS (annexin/PI) and cleaved caspase-3; details: Huh7-SR cells; FIGS. 1A to 1C
Description: (§3) To evaluate the cancer cell death by FACS, first, a cancer cell line was incubated in FITC-bound annexin and propidium iodide (PI) for 15 minutes, and annexin and PI binding were then measured by flow cytometry to acquire data using a BD Accuri C6 flow cytometer (BD Biosciences) and analyzed with the ACCURI™ C6 analysis program (BD Biosciences)/FlowJo software (FlowJo, LLC.). Cancer cell line death was evaluated using a cleaved caspase-3 antibody (Cell Signaling Technology).

[6] = tested on: sorafenib-resistant liver cancer cell line SK-Hep-R; experiment: as above; details: SK-Hep-R cells; FIGS. 1A to 1C
Description: as §3

[7] = tested on: sorafenib-resistant liver cancer cell line SK-Hep-R; experiment: Cell proliferation, trypan blue cell count with hemocytometer; details: sorafenib alone, FIG. 4B
[8] = tested on: sorafenib-resistant liver cancer cell line Huh7-R; experiment: as above; details: sorafenib alone, FIG. 4A

Work on `N#CC[C@H](C1CCCC1)n1cc(-c2ncnc3[nH]ccc23)cn1` [ruxolitinib] yielded an inhibition at 30 µM [1] of 8.8%.

`Cc1cc(Nc2ncc(Cl)c(Nc3ccccc3S(=O)(=O)C(C)C)n2)c(OC(C)C)cc1C1CCNCC1` [ceritinib] showed an inhibition at 2.5 µM [2] of 17%.

For `COc1cc(Nc2c(C#N)cnc3cc(OCCCN4CCN(C)CC4)c(OC)cc23)c(Cl)cc1Cl` [bosutinib], the inhibition at 12.5 µM [3] was 16.3%.

For `COc1cc2nccc(Oc3ccc(NC(=O)NC4CC4)c(Cl)c3)c2cc1C(N)=O` [lenvatinib], the inhibition at 15 µM [4] was 16.7% and the inhibition at 1.3 µM (Huh-7 liver cancer cells) was 16.7%.

`CNC(=O)c1cc(Oc2ccc(NC(=O)Nc3ccc(Cl)c(C(F)(F)F)c3)cc2)ccn1` [sorafenib] was tested, and the “cell death by sorafenib” value [5] was “did not increase”, the “cell death by sorafenib” value [6] was “did not increase” and the cell proliferation [7] was “not affected”. The cell proliferation [8] was “not affected”.
